Patent US12091411B2, “IRAK degraders and uses thereof” (Kymera Therapeutics, Inc., priority 2022, dated 2024)
Where two headings read alike, the source gives them in different places.

Biological target: T1, IRAK4 (Homo sapiens, UniProt Q9NWZ3)
T1 construct: Degradation of IRAK4 in OCI-LY10 was quantitatively measured using Meso Scale Discovery technology; endogenous in cells; host or cells: OCI-LY10
T1 sequence (Q9NWZ3 1-460): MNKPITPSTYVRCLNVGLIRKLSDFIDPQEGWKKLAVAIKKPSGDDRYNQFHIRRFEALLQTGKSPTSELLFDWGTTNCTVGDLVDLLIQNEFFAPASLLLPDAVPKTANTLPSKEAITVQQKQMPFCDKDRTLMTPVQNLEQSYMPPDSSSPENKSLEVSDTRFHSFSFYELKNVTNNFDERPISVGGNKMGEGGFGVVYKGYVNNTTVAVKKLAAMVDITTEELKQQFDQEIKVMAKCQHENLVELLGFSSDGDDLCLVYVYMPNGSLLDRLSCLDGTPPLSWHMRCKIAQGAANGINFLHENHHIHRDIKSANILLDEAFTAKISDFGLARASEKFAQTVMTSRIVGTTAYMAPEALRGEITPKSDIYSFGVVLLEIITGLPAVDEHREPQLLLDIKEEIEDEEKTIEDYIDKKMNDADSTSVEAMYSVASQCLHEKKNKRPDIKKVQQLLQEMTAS
Experiment: IRAK4 MSD Degradation in OCI-LY10
Assay type: cell-based
Conditions: OCI-LY10 cells
In short: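 DC50, from a three-parameter logistic fit and reported as letter bins A (<0.01 μM), B, C, D (>0.2 μM or not tested), reflects IRAK4 loss measured by MSD electrochemiluminescence in OCI-LY10 lysates. Treatment: 8 doses, 1:3 steps, top 1 to 10 μM, 4 to 24 h, 37 °C.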

[1] = 4 hrs incubation, MSD, read-out: IRAK4 degradation in OCI-LY10 at 4 hrs: DC50
[2] = 24 hrs incubation, MSD, read-out: IRAK4 degradation in OCI-LY10 at 24 hrs: DC50

Compound	DC50 [1]	DC50 [2]	DC50 (4 hrs incubation, read-out: IRAK4 degradation in OCI-LY10 at 4 hrs: DC50)	DC50 (24 hrs incubation, read-out: IRAK4 degradation in OCI-LY10 at 24 hrs: DC50)
COc1cc2nn([C@H]3CC[C@H](CN4CCC5(CC4)CC(Nc4cccc6c4C(=O)N(C4CCC(=O)NC4=O)C6=O)C5)CC3)cc2cc1NC(=O)c1ccccn1 (some centres unmarked) [I-140]	> 0.2 µM	0.01 to 0.1 µM	–	–
C[C@@H]1CN(c2ccn3ncc(C(=O)Nc4cn([C@H]5CC[C@H](CN6CCN(CC7CN(c8cccc9c8n(C)c(=O)n9C8CCC(=O)NC8=O)C7)CC6)CC5)nc4C(F)F)c3n2)CCO1 (some centres unmarked) [I-680]	> 0.2 µM	< 0.01 µM	–	–
Cn1c(=O)n(C2CCC(=O)NC2=O)c2cccc(-c3cc(CN4CCn5cc(-n6cc(NC(=O)c7cnn8cccnc78)c(C(F)F)n6)cc5C4)ncn3)c21 (centres unmarked) [I-415]	> 0.2 µM	> 0.2 µM	–	–
O=C1CCC(c2ccc(C#CCN3CCN(C[C@H]4CC[C@H](n5cc(NC(=O)c6cnn7ccc(N8C[C@H]9C[C@@H]8CO9)nc67)c(C(F)F)n5)CC4)CC3)cc2)C(=O)N1 (some centres unmarked) [I-437]	0.01 to 0.1 µM	> 0.2 µM	–	–
Cn1c(=O)n(C2CCC(=O)NC2=O)c2cccc(OC3CC(N4CCN(C[C@H]5CC[C@H](n6cc(NC(=O)c7cnn8ccc(N9C[C@H]%10C[C@@H]9CO%10)nc78)c(C(F)F)n6)CC5)CC4)C3)c21 (some centres unmarked) [I-670]	> 0.2 µM	< 0.01 µM	–	–
Cc1cccc(C(=O)Nc2cc3cn([C@H]4CC[C@H](CN5CCC(c6cccc7c6n(C)c(=O)n7C6CCC(=O)NC6=O)C(F)(F)C5)CC4)nc3c(=O)n2C)n1 (some centres unmarked) [I-772]	> 0.2 µM	> 0.2 µM	–	–
Cn1c(=O)n(C2CCC(=O)NC2=O)c2cccc(C#CCN3CCN(C[C@H]4CC[C@H](n5cc(NC(=O)c6cnn7ccc(N8C[C@H]9C[C@@H]8CO9)nc67)c(C(F)(F)F)n5)CC4)CC3)c21 (relative stereo) [I-112]	0.01 to 0.1 µM	> 0.2 µM	–	–
CN(C[C@H]1CC[C@H](n2cc(NC(=O)c3cnn4ccc(N5CCC5)nc34)c(C(F)F)n2)CC1)C1CCN(c2cccc3c2n(C)c(=O)n3C2CCC(=O)NC2=O)CC1(F)F (some centres unmarked) [I-504]	> 0.2 µM	> 0.2 µM	–	–
Cn1c(=O)n(C2CCC(=O)NC2=O)c2cccc(N3CC(O[C@H]4CC[C@H](n5cc6cc(NC(=O)c7cccc(C(F)(F)F)n7)ccc6n5)CC4)C3)c21 (some centres unmarked) [I-796]	–	–	> 0.2 µM	> 0.2 µM
CN(CCCCNc1cccc2c1C(=O)N(C1CCC(=O)NC1=O)C2=O)C[C@H]1CC[C@H](n2cc3cc(NC(=O)c4cccc(C(F)(F)F)n4)c(C(C)(C)O)cc3n2)CC1 (some centres unmarked) [I-145]	< 0.01 µM	< 0.01 µM	–	–

Now from value to molecule:

DC50 [1]	DC50 [2]	DC50 (4 hrs incubation, read-out: IRAK4 degradation in OCI-LY10 at 4 hrs: DC50)	DC50 (24 hrs incubation, read-out: IRAK4 degradation in OCI-LY10 at 24 hrs: DC50)	Compound
0.01 to 0.1 µM	0.01 to 0.1 µM	–	–	CCc1ccn2ncc(C(=O)Nc3cn([C@H]4CC[C@H](CN5CCN(CC#Cc6cccc7c6n(C)c(=O)n7C6CCC(=O)NC6=O)CC5)CC4)nc3C(F)F)c2n1 (some centres unmarked) [I-110]
> 0.2 µM	> 0.2 µM	–	–	CN(C[C@H]1CC[C@H](n2cc(NC(=O)c3cnn4ccc(N5CCCCCC5)nc34)c(C(F)F)n2)CC1)C1CCN(c2cccc3c2n(C)c(=O)n3C2CCC(=O)NC2=O)CC1(F)F (some centres unmarked) [I-543]
> 0.2 µM	> 0.2 µM	–	–	Cn1c(=O)n(C2CCC(=O)NC2=O)c2cccc(OC3CC4(CCN(Cc5ccc(-n6cc(NC(=O)c7cnn8ccc(N9C[C@H]%10C[C@@H]9CO%10)nc78)c(C(F)F)n6)cc5)CC4)C3)c21 (some centres unmarked) [I-401]
< 0.01 µM	> 0.2 µM	–	–	Cn1c(=O)n(C2CCC(=O)NC2=O)c2cccc(CC[C@H]3CN(C[C@H]4CC[C@H](n5cc(NC(=O)c6cnn7cccnc67)c(C(F)F)n5)CC4)CCO3)c21 (some centres unmarked) [I-387]
> 0.2 µM	> 0.2 µM	–	–	Cn1c(=O)n(C2CCC(=O)NC2=O)c2cccc(N3CCC(N4CCN([C@H]5CC[C@H](n6cc(NC(=O)c7cnn8ccc(N9C[C@H]%10C[C@@H]9CO%10)nc78)c(C(F)F)n6)CC5)CC4)CC3)c21 (some centres unmarked) [I-203]
0.01 to 0.1 µM	> 0.2 µM	–	–	Cc1ccn2ncc(C(=O)Nc3cn([C@H]4CC[C@H](CN5CCN(CC#Cc6cccc7c6n(C)c(=O)n7C6CCC(=O)NC6=O)CC5)CC4)nc3C(F)F)c2n1 (some centres unmarked) [I-102]
0.01 to 0.1 µM	> 0.2 µM	–	–	Cn1c(=O)n(C2CCC(=O)NC2=O)c2cccc(CCCN3CCN(C(C#N)[C@H]4CC[C@H](n5cc(NC(=O)c6cnn7ccc(N8C[C@H]9C[C@@H]8CO9)nc67)c(C(F)F)n5)CC4)CC3)c21 (some centres unmarked) [I-197]
0.01 to 0.1 µM	> 0.2 µM	–	–	Cn1c(=O)n(C2CCC(=O)NC2=O)c2cccc(C#CCC3CCN(C[C@H]4CC[C@H](n5cc(NC(=O)c6cnn7ccc(N8C[C@H]9C[C@@H]8CO9)nc67)c(C(F)F)n5)CC4)CC3(F)F)c21 (some centres unmarked) [I-374]
> 0.2 µM	0.01 to 0.1 µM	–	–	Cc1ccc(-c2nn([C@H]3CC[C@H](CN4CCN(CC#Cc5cccc6c5n(C)c(=O)n6C5CCC(=O)NC5=O)CC4)CC3)cc2NC(=O)c2cnn3cccnc23)c(F)c1 (some centres unmarked) [I-116]
